Assay results taken from US12590056B2, “IGF2BP2 inhibitors and uses thereof” (CITY OF HOPE, priority 2020, dated 2026).
“Also recorded” adds a separate entry of the source.

Columns and labels:
[1] = test system: IGF2BP2-high AML cell lines; assay: Cell differentiation in IGF2BP2-high AML cell lines; format: cell-based, human; settings: 24-hour treatment
Excerpt: (§1) FIGS. 7A-7B. Effects of CWI1-2 on cell differentiation in acute myeloid leukemia (AML).

[2] = test system: human acute myeloid leukemia (AML) cells; assay: Anti-cancer activity in vitro (viability of human AML cells); format: cell-based
Excerpt: FIGS. 5A-5E. IC50 of the lead compound CWI1-2 in human acute myeloid leukemia (AML) cells. FIG. 5A: Relative viability vs. CWI1-2 concentration in healthy bone marrow #1. FIG. 5B: Relative viability vs. CWI1-2 concentration in healthy bone marrow #2. FIG. 5C: Relative viability vs. CWI1-2 concentration in AML blast cells collected from a primary AML patient. FIG. 5D: Relative survival vs. log10 concentration of CWI1-2 in IGF2BP2-high AML cell lines. FIG. 5E: Relative survival vs. log10 concentration of CWI1-2 in IGF2BP2-low AML cell lines.

[3] = molecular target: IGF2BP2 binding to m^6A-modified single strand RNA (SS-m^6A) (Homo sapiens, UniProt Q9Y6M1); assay: RNA pull-down assay; format: biochemical
Sequence of IGF2BP2 binding to m^6A-modified single strand RNA (SS-m^6A) (Q9Y6M1 whole entry): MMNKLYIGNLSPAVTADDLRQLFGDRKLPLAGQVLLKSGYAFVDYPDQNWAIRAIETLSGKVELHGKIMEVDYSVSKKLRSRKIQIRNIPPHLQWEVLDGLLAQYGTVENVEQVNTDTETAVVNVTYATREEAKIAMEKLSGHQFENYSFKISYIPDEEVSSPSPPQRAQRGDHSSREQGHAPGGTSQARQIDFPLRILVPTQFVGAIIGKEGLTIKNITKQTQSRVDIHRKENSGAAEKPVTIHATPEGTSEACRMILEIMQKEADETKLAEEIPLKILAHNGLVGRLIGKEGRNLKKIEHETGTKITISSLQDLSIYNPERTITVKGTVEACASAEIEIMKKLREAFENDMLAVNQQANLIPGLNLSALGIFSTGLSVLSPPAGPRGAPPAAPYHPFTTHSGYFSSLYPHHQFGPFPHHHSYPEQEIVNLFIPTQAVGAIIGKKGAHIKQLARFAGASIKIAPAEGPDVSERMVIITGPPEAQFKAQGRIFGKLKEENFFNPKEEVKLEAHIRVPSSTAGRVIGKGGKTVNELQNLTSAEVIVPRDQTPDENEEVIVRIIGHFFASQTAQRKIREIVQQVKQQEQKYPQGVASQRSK
Excerpt: (§2) FIGS. 4A-4B. CWI1-2 inhibits binding of IGF2BP2 to m^6A-modified RNA and suppresses expression of the oncogenic targets of IGF2BP2.

[4] = test system: IGF2BP2-low acute leukemia cell lines; assay: Cell differentiation in IGF2BP2-low acute leukemia cell lines; format: cell-based; settings: 24-hour treatment
Excerpt: as §1

[5] = molecular target: T1, IGF2BP2 (Homo sapiens, UniProt Q9Y6M1); assay: Drug Affinity Responsive Target Stability (DARTS) assay; format: binding; settings: protection from degradation by proteases
T1 sequence (Q9Y6M1 whole entry): as above
Description: FIG. 3. […] Drug Affinity Responsive Target Stability (DARTS) assay was performed. The principle of the assay is binding of compound to proteins protects proteins from degradation by proteases.

[6] = test system: IGF2BP2-high AML cell lines; assay: Apoptosis in IGF2BP2-high AML cell lines; format: cell-based, human; settings: 24-hour treatment
Excerpt: (§3) FIGS. 6A-6B. Effects of CWI1-2 on apoptosis in human acute myeloid leukemia (AML) cells.

[7] = test system: IGF2BP2 target genes; assay: Expression of IGF2BP2 target genes and of IGF2BP2 after treatment; format: cell-based; settings: after compound treatment
Excerpt: as §2

[8] = Body weight of BMT recipient mice; format: in vivo; settings: 5 mg/kg, i.v., daily for 7 days
Description: (§4) FIGS. 8A-8B. […] FIG. 8A: Ten days after BMT with primary murine MLL-AF9 AML cells, recipient mice were given vehicle control (CT) or CWI1-2 daily for 7 days (5 mg/kg, i.v.). Peripheral blood was taken 3 days after the last treatment and assessed by flow cytometry.

[9] = molecular target: T1, IGF2BP2; assay: Biological assays of IGF2BP2 inhibition (purified fractions and synthesized compounds); settings: for effectiveness, synthesized compound: compounds synthesized based on the predicted structures
Excerpt: (§5) Virtual screening of library compounds and lead compound identification. NCI DTP library of approximately 260,000 compounds was screened. Screening included docking on the KH3 domain of IGF2BP2. Over 500 compounds were identified for experimental validation. NSC69557, termed CWI1, was identified as a top hit. Mass spectrometry (MS) identified CWI1 as a mixture including three major peaks: CWI1, CWI1-1, and CWI1-2. Their structures were predicted based on nuclear magnetic resonance (NMR) and MS data. The compound peaks for the predicted CWI1-1 and CWI1-2 were purified by HPLC. […] CWI1, CWI1-1, and CWI1-2 were synthesized based on the predicted structures. […] Thus, the structures of CWI1-1 and CWI1-2 were confirmed.

[10] = test system: IGF2BP2-low acute leukemia cell lines; assay: Apoptosis in IGF2BP2-low acute leukemia cell lines; format: cell-based, human; settings: 24-hour treatment
Excerpt: as §3

[11] = test system: primary murine MLL-AF9 AML cells; assay: Engraftment of AML cells in bone marrow transplant (BMT) recipient mice; format: in vivo; settings: 5 mg/kg, i.v., daily for 7 days from ten days after BMT; peripheral blood 3 days after last treatment, flow cytometry
Description: as §4

[12] = molecular target: T1, IGF2BP2; assay: Cellular Thermal Shift Assay (CETSA); format: binding; settings: CETSA also run for IGF2BP1 and IGF2BP3; western blot
Description: FIGS. 2A-2C. […] Cellular Thermal Shift Assay (CETSA) was conducted. The principle of the assay is unbound proteins denature and precipitate at elevated temperatures, while drug-bound proteins tend to remain in solution. Cells are seeded and treated. Cell pellets are washed, harvested, and heated. Cells are lysed and centrifuged. Western blot is performed. FIG. 2A: Results of CETSA for IGF2BP2. FIG. 2B: Results of CETSA for IGF2BP1. FIG. 2C: Results of CETSA for IGF2BP3.

[13] = molecular target: T2, KH3 domain of IGF2BP2 (Homo sapiens, UniProt Q9Y6M1); assay: Virtual screening of NCI DTP library (docking) followed by experimental validation; settings: approximately 260,000 compounds screened, over 500 taken to experimental validation
T2 construct: Screening included docking on the KH3 domain of IGF2BP2
T2 sequence (Q9Y6M1 427-492 limits assumed): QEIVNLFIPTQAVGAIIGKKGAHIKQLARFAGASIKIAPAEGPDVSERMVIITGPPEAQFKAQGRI
Excerpt: as §5

binding to IGF2BP2 (DARTS) [5]	effectiveness, synthesized compound [9]	activity as inhibitor of IGF2BP2, HPLC-purified fraction ([9]; fractions purified by HPLC from the NSC69557 mixture)	hit ranking in library screening [13]	SMILES	cell differentiation [1]	anti-cancer activity in vitro [2]	binding of IGF2BP2 to m^6A-modified RNA in the presence of compound [3]	cell differentiation [4]	apoptosis [6]	IGF2BP2 expression [7]	expression of IGF2BP2 target genes [7]	effect on body weight of recipient mice [8]	apoptosis [10]	engraftment of AML cells in BMT recipient mice [11]	binding to IGF2BP2 (CETSA) [12]
direct and preferential binding	much more effective	most active inhibitor of IGF2BP2		Oc1ccc(Cl)cc1/C=N\N/C(=N/N=C/c1cc(Cl)ccc1O)N/N=C/c1cc(Cl)ccc1O [CWI1-2]	induces remarkable cell differentiation; also recorded: significantly promoted	potent anti-cancer activities in vitro at nanomolar concentrations; also recorded: potent anti-cancer efficacy	decreased binding of IGF2BP2 to m^6A-modified single strand RNA (SS-m^6A); also recorded: prevent IGF2BP2 from binding to its mRNA targets; also recorded: specifically inhibits binding of IGF2BP2 to its mRNA targets with m^6A modification	much less likely	induces remarkable apoptosis; also recorded: significantly promoted	without affecting IGF2BP2 expression	reduces expression of IGF2BP2 target genes; also recorded: suppressing expression of its oncogenic targets such as MYC oncogene	little effect on body weight	much less likely	inhibits engraftment; also recorded: remarkably inhibit engraftment	direct and preferential binding; also recorded: specifically binds to IGF2BP2
	effective			NN/C(=N\N=C\c1cc(Cl)ccc1O)N/N=C\c1cc(Cl)ccc1O [CWI1-1]											
	less effective		top hit	N/C(=N\N=C\c1cc(Cl)ccc1O)N/N=C\c1cc(Cl)ccc1O [CWI1]											
